US20170064966A1, “ANTIMICROBIAL COMPOSITIONS AND METHODS AND USES THEREOF” (BAR ILAN UNIVERSITY, priority 2015, published 2017)
Where two headings read alike, the source gives them in different places. Non-standard residues stand in square brackets, D forms with d. No end group written: not given here.

Assays:
PA biofilm formation = test: Static biofilm model with N′-loop derived peptides (crystal violet); details: for anti-biofilm activity / inhibition of PA biofilm formation: peptides 1-6 at 0.01, 0.05 and 0.1 mM, FIG. 10B
Protocol: The static biofilm model was used to assess the ability of N′-loop derived peptides to reduce PA biofilm formation. Briefly, PA wild type bacteria were grown over night in M9 medium (20 mM NH4Cl; 12 mM Na2HPO4; 22 mM KH2PO4; 8.6 mM NaCl; 1 mM MgSO4; 1 mM CaCl2; 11 mM Dextrose) at 37 C. Following growth cells were diluted to a final concentration of 5*10^7 in M9 medium contacting 1/10 the phosphate concentration. 100 microliter of the bacterial suspension was transferred to each well of 96 wells plate. The six tested peptides were added at different concentrations 0.01, 0.05 and 0.1 mM. The plate was then incubated for 24 h at 37° C. to allow biofilm development. After incubation the medium was removed and the wells were carefully washed twice with sterile ddsH2O to remove planktonic bacteria. Next 150 microliter of 1% crystal violet (w/v) was added to each well in order to stain the biofilm cells. The stain was allowed to incubate for 15 min after which the wells were washed again with ddsH2O. The stain attached to the biofilm was then extracted by adding 200 microliter ethanol (95%). The biofilm biomass was quantified by reading the absorbance at 595nm using an ELISA plate reader.

[1] = tested on: P. aeruginosa strains PAO1, PA14 and clinical isolate DK2; test: Flow cell biofilm experiment in the presence of inhibitory peptide
Protocol: Bacterial strains (Pseudomonas aeruginosa strains PA14 and DK2) containing the plasmid pUCP-GFP inserted to bacterial cells by electroporation (pUCP18 that constitutionally expresses the GFP under the lac promoter), were inoculated from −80° C. stock into 2 mL TSB containing 300 μg/mL Carb (to maintain the pUCP-GFP plasmid) and grown overnight at 37° C. with agitation. The next day, bacteria were diluted to 0.05 OD (595 nm) in 1% TSB containing the antibiotics and loaded onto 6 channel 1μ-Slide I^0.4 Luer uncoated (Ibidi). The slide was connected to a flow cell containing fresh 1% TSB with 0.05 Mm, 0.1 mM peptides or without peptides. Fresh media flowed through the slide by a pump at 10 mL/h (2 rpm). Bacteria were grown in the slide for 48 hours at 37° C. After 48 hours, 3 representative pictures from the beginning and the middle of the slide, were taken using SP8 confocal HyD microscope (Leica). Pictures were analyzed by Imaris software (version 7.2.2).

[2] = format: binding; details: P^32-labeled phosphate, pH 7.5, FIG. 3C
[3] = measured under similar pH conditions, ref (18); read-out: phosphate binding (KD) reported for PstS orthologs; cited from earlier work

Q: With AIDPALPE as the molecule, how does the “anti-biofilm activity / inhibition of PA biofilm formation” value (PA biofilm formation) read?
A: inhibits most effectively biofilm formation

Q: And the “anti-biofilm activity / inhibition of PA biofilm formation” value (PA biofilm formation; listed as peptide 3)?
A: most effective peptide

Q: Which “biofilm formation (biovolume)” value ([1]; 0.1 mM in media, 48 h, strains PAO1, PA14, DK2, FIG. 11A) does the source give for “modified peptide-3: enantiomer of peptide-3 having the N-terminal Ala and C-terminal Glu residues in the D-form (SEQ ID NO. 56) ([dA]IDPALP[dE])” here?
A: significantly reduces the biofilm formation

Q: What about the “biofilm formation phenotype, confocal microscope images” value ([1]; strains PAO1, PA14, DK2, 48 h, FIG. 11B) of the same molecule?
A: changes the biofilm formation phenotype of all PA strains examined

Q: And the “inhibition of PA biofilm formation” value (PA biofilm formation; 0.1 millimolar modified peptide 3, FIG. 10C)?
A: efficiently inhibited biofilm formation

B1: wild-type PstS: periplasmic phosphate-binding subunit of the P. aeruginosa Pst transporter, purified from E. coli (protein)
chain: MKLKRLMAALTFVAAGVGAASAVAAIDPALPEYQKASGVSGNLSSVGSDTLANLMTMWAEEYKRLYPNVNIQIQAAGSSTAPPALTEGTANLGPMSRKMKDVELQAFEQKYGYKPTAVPVAVDALAIFVHKDNPIKGLTMQQVDAIFSATRLCGSKQDVKTWGDLGLTGDWAKKPVQLFGRNSVSGTYGYFKEEALCKGDFRPNVNEQPGSASVVQSVSQSLNGIGYSGIGYKTASVKTVALAKKEGAAFVEDNEQNALNGTYPLSRFLYVYVNKAPNKPLDPLEAQFLKLVLSKTGQQVVVKDGYIPLPAKVAEKAIKELGL
modifications: P.aeruginosa PstS - accession number NP_254056.1
Q: Which Kd ([2]; read-out: dissociation constant (KD) for PO4) does the source give for B1 here?
A: 840 ± 120 nM

B2: S96E (protein)
chain: MKLKRLMAALTFVAAGVGAASAVAAIDPALPEYQKASGVSGNLSSVGSDTLANLMTMWAEEYKRLYPNVNIQIQAAGSSTAPPALTEGTANLGPMERKMKDVELQAFEQKYGYKPTAVPVAVDALAIFVHKDNPIKGLTMQQVDAIFSATRLCGSKQDVKTWGDLGLTGDWAKKPVQLFGRNSVSGTYGYFKEEALCKGDFRPNVNEQPGSASVVQSVSQSLNGIGYSGIGYKTASVKTVALAKKEGAAFVEDNEQNALNGTYPLSRFLYVYVNKAPNKPLDPLEAQFLKLVLSKTGQQVVVKDGYIPLPAKVAEKAIKELGL
modifications: The S96E PstS mutant
Q: For B2, which “dissociation constant (KD) for PO4” value [2] is on record?
A: very weak or no binding

B3: E. coli PstS: PstS ortholog from E. coli, literature value (18) (protein, UniProt P0AG82 26-346, looked up)
Phosphate-binding protein PstS: EASLTGAGATFPAPVYAKWADTYQKETGNKVNYQGIGSSGGVKQIIANTVDFGASDAPLSDEKLAQEGLFQFPTVIGGVVLAVNIPGLKSGELVLDGKTLGDIYLGKIKKWDDEAIAKLNPGLKLPSQNIAVVRRADGSGTSFVFTSYLAKVNEEWKNNVGTGSTVKWPIGLGGKGNDGIAAFVQRLPGAIGYVEYAYAKQNNLAYTKLISADGKPVSPTEENFANAAKGADWSKTFAQDLTNQKGEDAWPITSTTFILIHKDQKKPEQGTEVLKFFDWAYKTGAKQANDLDYASLPDSVVEQVRAAWKTNIKDSSGKPLY
Q: For B3, which Kd [3] is on record?
A: ~3000 nM
